Measurements as given in ChEMBL document CHEMBL1201862, “PubChem BioAssay data set” (2004).
Calls of active or inactive are those of the source.

How the values were obtained:
[1] = biological target: Induced myeloid leukemia cell differentiation protein Mcl-1 (Homo sapiens, UniProt Q07820); format: functional
Protein RecA = biological target: T1, Protein RecA (Mycobacterium tuberculosis, UniProt P9WHJ3); test: Fluorescence Cell-Free Homogeneous Dose Retest to Identify Inhibitors of RecA-Intein Splicing Activity. [Related pubchem assays (depositor defined):AID2097, AID2223, AID489010, AID492950]; format: functional
T1 sequence (P9WHJ3 whole entry): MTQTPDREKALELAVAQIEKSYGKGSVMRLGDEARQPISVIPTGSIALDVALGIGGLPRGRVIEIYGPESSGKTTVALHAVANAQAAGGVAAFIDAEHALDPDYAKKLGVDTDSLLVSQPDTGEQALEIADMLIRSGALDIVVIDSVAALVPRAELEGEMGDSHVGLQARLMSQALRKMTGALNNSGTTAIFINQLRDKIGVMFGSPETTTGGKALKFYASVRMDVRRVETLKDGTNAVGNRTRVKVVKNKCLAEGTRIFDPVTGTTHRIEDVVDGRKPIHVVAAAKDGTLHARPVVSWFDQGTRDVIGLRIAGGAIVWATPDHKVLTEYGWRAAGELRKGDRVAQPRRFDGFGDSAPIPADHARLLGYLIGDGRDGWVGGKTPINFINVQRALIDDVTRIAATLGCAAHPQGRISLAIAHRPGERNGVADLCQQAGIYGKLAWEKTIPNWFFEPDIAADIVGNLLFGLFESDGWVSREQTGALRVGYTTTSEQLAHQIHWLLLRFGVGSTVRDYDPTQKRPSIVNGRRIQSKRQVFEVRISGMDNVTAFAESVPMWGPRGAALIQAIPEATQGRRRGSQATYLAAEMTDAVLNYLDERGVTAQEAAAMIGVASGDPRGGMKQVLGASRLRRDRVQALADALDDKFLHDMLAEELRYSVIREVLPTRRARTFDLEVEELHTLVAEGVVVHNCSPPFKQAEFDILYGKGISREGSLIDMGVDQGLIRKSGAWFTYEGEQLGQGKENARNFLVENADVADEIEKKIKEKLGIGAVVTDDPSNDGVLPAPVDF

[2] = biological target: T2, Replicative DNA helicase DnaB (Mycobacterium tuberculosis, UniProt P9WMR3); test: DnaB intein splicing inhibitors, dose response, biochemical, cell-free fluorescence (AID 449749); format: functional
T2 sequence (P9WMR3 whole entry): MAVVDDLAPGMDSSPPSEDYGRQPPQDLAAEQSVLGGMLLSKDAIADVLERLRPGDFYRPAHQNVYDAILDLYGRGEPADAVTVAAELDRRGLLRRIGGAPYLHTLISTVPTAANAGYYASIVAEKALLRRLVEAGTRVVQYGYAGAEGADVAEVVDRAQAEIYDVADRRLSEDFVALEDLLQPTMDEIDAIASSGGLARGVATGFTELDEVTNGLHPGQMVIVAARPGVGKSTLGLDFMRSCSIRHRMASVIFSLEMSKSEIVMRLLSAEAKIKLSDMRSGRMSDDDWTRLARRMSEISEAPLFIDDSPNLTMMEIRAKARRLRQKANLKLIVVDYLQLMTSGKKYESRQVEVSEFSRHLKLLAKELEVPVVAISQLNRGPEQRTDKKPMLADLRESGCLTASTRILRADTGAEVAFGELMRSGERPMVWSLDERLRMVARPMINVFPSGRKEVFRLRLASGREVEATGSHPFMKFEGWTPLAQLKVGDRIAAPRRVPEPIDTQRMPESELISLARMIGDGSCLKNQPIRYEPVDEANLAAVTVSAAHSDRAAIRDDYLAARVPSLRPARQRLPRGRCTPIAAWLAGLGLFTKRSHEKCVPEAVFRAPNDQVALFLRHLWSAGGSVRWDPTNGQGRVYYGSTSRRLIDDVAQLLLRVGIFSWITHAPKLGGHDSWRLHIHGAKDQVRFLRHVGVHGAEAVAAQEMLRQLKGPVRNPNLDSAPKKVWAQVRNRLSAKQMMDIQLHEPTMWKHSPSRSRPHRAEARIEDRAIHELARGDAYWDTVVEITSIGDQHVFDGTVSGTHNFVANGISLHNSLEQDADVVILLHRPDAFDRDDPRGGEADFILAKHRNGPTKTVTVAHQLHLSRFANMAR

Leucine aminopeptidase = biological target: T3, Leucine aminopeptidase (Plasmodium falciparum 3D7, UniProt Q8IL11); test: P. falciparum M17LAP inhibitors, primary screen, biochemical, fluorogenic H-Leu-NHMec substrate, 1536-well (AID 1619); format: functional
T3 sequence (Q8IL11 whole entry): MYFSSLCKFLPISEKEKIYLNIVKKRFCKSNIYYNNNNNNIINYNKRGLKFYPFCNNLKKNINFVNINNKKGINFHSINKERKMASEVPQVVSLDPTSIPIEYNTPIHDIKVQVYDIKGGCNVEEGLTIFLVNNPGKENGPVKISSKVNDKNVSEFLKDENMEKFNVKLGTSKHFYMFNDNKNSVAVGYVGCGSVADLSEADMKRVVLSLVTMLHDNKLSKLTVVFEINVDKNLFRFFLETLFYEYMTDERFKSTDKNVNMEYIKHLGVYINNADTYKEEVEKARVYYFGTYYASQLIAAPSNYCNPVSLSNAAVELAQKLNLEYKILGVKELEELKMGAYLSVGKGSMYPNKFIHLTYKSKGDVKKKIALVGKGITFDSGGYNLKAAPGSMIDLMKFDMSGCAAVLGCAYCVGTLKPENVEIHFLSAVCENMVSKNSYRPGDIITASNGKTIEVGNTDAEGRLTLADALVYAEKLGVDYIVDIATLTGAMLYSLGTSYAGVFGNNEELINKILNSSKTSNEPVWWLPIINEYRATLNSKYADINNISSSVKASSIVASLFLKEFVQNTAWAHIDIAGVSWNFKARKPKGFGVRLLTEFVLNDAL

Aminopeptidase N = biological target: T4, Aminopeptidase N (Plasmodium falciparum FcB1/Columbia, UniProt O96935); test: P. falciparum M1AAP inhibitors, biochemical, fluorogenic H-Leu-NHMec substrate, 1536-well (AID 1445); set-up: species or system Plasmodium falciparum 3D7, 3D7
T4 sequence (O96935 whole entry): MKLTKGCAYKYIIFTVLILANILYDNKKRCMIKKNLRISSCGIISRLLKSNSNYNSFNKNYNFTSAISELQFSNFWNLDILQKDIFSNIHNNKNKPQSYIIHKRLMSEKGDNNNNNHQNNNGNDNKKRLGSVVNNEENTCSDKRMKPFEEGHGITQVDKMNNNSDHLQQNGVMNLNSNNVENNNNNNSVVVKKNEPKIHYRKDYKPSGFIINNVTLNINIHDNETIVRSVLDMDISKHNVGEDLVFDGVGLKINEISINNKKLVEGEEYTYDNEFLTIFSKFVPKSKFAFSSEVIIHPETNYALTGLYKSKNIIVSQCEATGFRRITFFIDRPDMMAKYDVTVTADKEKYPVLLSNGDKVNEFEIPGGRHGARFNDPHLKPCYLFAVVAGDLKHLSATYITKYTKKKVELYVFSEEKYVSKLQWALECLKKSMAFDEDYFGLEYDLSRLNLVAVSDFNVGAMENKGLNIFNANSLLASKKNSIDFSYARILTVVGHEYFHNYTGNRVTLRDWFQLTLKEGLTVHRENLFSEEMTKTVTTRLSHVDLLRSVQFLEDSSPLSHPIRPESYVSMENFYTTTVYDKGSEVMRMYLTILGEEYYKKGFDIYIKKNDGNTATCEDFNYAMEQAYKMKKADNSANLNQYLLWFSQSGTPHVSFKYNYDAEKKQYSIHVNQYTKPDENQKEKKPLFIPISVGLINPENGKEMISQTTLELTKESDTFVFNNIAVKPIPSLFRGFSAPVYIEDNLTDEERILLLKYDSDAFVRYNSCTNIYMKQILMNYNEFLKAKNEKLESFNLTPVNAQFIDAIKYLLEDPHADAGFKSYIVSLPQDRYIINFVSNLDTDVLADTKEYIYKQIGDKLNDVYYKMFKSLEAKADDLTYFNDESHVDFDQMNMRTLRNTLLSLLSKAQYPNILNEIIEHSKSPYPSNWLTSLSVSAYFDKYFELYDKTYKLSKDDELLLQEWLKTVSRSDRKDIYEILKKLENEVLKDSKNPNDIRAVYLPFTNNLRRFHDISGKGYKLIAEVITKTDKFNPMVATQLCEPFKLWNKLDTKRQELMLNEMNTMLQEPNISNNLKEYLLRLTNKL

[3] = microbe, parasite or virus in culture; format: functional; conditions: Mycobacterium tuberculosis
[4] = inhibitors of firefly luciferase expression or activity, dose response, H4 neuroglioma cells, luminescence (AID 1990); format: functional, cell-based
Paired box protein Pax-8 = Paired box protein Pax-8 (Homo sapiens, UniProt Q06710); test: inhibitors of PAX8-driven TPO luciferase reporter, dose response, RMG-I cells, cherry-pick (AID 687027); format: functional, cell-based;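 note: luciferase reporter driven by Pax8 target thyroperoxidase promoter measured by SteadyGlo luminescence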
Chain of Paired box protein Pax-8 (Q06710 whole entry): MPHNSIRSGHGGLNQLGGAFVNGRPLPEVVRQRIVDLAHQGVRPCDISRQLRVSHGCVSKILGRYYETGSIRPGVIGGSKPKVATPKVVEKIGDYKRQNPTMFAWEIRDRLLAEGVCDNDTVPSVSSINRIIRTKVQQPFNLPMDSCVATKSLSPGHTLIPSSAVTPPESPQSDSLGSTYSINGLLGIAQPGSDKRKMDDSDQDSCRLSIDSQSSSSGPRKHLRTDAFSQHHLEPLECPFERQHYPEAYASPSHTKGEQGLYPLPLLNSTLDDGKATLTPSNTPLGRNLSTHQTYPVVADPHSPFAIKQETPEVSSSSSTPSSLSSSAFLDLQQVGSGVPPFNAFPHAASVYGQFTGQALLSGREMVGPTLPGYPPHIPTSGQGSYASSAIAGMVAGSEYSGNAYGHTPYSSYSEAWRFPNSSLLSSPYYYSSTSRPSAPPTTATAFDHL

[5] = growth suppression of PTEN-null colon cells, dose response, cell-based, HCT116 PTEN knockout (AID 1047); format: functional;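 note: HCT116 colon tumor cells with PTEN knocked out; cells exposed to compound for 60 hours before readout; potency for loss of cell viability measured by luminescence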
INS1 = test: beta cell apoptosis inhibitors, cytokine rescue, dose response, luminescence, retest (AID 449756); format: functional, cell-based; conditions: Rattus norvegicus;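 note: cell death triggered by IL-1 beta plus TNF-alpha plus IFN-gamma mixture; protective hits raise ATP signal compared with cytokine alone wells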
Streptococcus = test: Group A Streptococcus viability loss, dose response, counter-screen for streptokinase expression inhibitor project, luminescence, BacTiterGlo (AID 1915); format: functional, organism-based;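 note: potency for reduction of bacterial viability or growth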
[6] = control 3'UTR Renilla luciferase suppression, dose response, counter-screen for Shn3 inhibitor project, cell-based, Clone20-Shn3RL, cherry-picked (AID 624133); format: functional
[7] = HepG2 cell cytotoxicity, dose response, cytotoxicity control for Shn3 inhibitor project, CellTiter-Glo, cherry-picked (AID 624134); format: functional, cell-based
[8] = growth suppression of beta-catenin-knockout colon cells, dose response, cell-based, HCT116, human colon tumor (AID 1045); format: functional;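 note: HCT116 colon tumor cells with beta catenin knocked out; cells exposed to compound for 60 hours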
[9] = inhibitors of SNCA 5'UTR-driven reporter translation, confirmation, H4 neuroglioma cells, luminescence (AID 1988); format: functional, cell-based
[10] = Shn3 3'UTR reporter inhibitors, dose response, cell-based, Clone20 osteoblasts, firefly luciferase, cherry-picked (AID 624132); format: functional;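 note: firefly luciferase luminescence from reporter carrying the Shn3 3'UTR in osteoblasts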
Streptokinase A = biological target: T5, Streptokinase A (Streptococcus pyogenes serotype M1, UniProt P10520); test: S. pyogenes streptokinase expression inhibitors, potency, dose response, plasminogen activation absorbance, OD405 (AID 1914); format: functional, Streptococcus pyogenes M1 GAS;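 note: secreted streptokinase activity via plasminogen activation per viability signal from cell pellet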
T5 sequence (P10520 whole entry): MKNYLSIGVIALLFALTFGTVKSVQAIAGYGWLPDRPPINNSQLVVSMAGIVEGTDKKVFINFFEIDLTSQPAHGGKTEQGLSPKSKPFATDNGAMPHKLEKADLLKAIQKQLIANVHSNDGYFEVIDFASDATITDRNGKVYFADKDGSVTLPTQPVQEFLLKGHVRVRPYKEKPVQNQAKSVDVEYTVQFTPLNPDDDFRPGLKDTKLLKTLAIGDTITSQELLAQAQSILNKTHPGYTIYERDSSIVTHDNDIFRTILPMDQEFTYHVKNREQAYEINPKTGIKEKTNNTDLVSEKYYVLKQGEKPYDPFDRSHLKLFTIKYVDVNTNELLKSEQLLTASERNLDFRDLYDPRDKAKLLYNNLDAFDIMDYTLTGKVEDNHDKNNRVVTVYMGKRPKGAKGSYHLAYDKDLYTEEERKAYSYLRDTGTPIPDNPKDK

[11] = Luminescence Cell-Based Dose Response HTS to Identify Inhibitors of 5'UTR Stem-Loop Driven Prion Protein mRNA Translation in H4 Neuroglioblastoma Cells. [Related pubchem assays: 1827 (Project Summary), 1813 (Primary HTS)]; format: functional
[12] = system: Streptococcus sp. 'group A'; test: growth inhibition of control SK(-) GAS strain, dose response, counter-screen for streptokinase expression inhibitor project, luminescence, kanamycin, BacTiterGlo, confirmation (AID 1900); format: functional, organism-based

Chain of Induced myeloid leukemia cell differentiation protein Mcl-1 (Q07820 whole entry): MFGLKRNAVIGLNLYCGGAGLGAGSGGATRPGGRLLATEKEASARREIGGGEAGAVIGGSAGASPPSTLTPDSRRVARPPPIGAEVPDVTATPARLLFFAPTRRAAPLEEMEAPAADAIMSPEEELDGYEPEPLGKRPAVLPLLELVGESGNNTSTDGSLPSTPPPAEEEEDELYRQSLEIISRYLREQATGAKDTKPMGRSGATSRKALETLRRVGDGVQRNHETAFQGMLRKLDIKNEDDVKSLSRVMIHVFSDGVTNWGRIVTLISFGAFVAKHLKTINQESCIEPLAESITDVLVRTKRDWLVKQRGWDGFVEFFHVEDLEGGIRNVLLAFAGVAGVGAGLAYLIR

## COc1ccc(CCNC(=O)COC(=O)Cc2cccc3ccccc23)cc1
[1]
  IC50: 26.3 µM (not active)

## CCCCc1ccc(NC(=O)CSCc2cc(=O)[nH][nH]2)cc1
Protein RecA
  EC50: 1.82 µM (active)
[2]
  AC50: 3.57 µM (active)
Leucine aminopeptidase
  IC50: 12.4 µM (active)

## Nc1c(C(=O)O)cnc2c(-c3ccc(Cl)cc3)cnn12
Aminopeptidase N
  IC50: 42.4 µM (active)
[3]
  CC50: 24.6 µM (active)

## O=C(Nc1ccc([N+](=O)[O-])cc1)Nc1nc(-c2ccc(Cl)s2)cs1
[4]
  EC50: 8.65 µM (active)
Paired box protein Pax-8
  AC50: 2.42 µM (active)
[5]
  EC50: 0.8 µM (active)
INS1
  AC50: 1.54 µM (active)
Streptococcus
  EC50: 81.8 µM (active)
[6]
  AC50: 3.04 µM (active)
[7]
  AC50: 4.82 µM (active)
[1]
  IC50: 5.32 µM (active)
[8]
  EC50: 0.991 µM (active)
[9]
  EC50: 8.39 µM (active)
[10]
  AC50: 3.19 µM (active)
Streptokinase A
  EC50: 44.8 µM (inconclusive)
[11]
  EC50: 8.31 µM (active)
[12]
  EC50: 6.16 µM (active)

## COC(=O)c1ccc(Cl)c(NS(=O)(=O)c2ccc3c(c2)OCCO3)c1
Aminopeptidase N
  IC50: 29.7 µM (active)
